One test concerns HePG-2. The test can be described thus: MTT antiproliferative assay, HePG-2. The class given is cell-based. Particulars: Homo sapiens, HepG2; hepatocellular carcinoma HePG-2, MTT.
A further test relates to HCT-116. The test can be described thus: MTT antiproliferative assay, HCT-116. Particulars: Homo sapiens, HCT-116, read-out: IC50 (µM) HCT-116. The class given is cell-based. In general terms: Tetrazolium assays rely on reduction of a dye to a coloured formazan, in cell work by metabolically active cells.
A further test deals with MCF-7. Nature of the test: MTT antiproliferative assay, MCF-7. The test is classed as cell-based. Particulars: Homo sapiens, MCF7; breast cancer MCF-7, MTT.
A further test deals with WI-38 cells. Nature of the test: Cytotoxicity against normal human cells, WI-38. The settings on record: normal lung cell line WI-38. The test is classed as cell-based.
Another test deals with VEGFR-2 (Homo sapiens, UniProt P35968). Nature of the test: In vitro VEGFR-2 kinase inhibitory assay. The test is classed as biochemical. Here is the method: […]. The in vitro assays were carried out as previously described.
Chain of VEGFR-2 (P35968 20-1356): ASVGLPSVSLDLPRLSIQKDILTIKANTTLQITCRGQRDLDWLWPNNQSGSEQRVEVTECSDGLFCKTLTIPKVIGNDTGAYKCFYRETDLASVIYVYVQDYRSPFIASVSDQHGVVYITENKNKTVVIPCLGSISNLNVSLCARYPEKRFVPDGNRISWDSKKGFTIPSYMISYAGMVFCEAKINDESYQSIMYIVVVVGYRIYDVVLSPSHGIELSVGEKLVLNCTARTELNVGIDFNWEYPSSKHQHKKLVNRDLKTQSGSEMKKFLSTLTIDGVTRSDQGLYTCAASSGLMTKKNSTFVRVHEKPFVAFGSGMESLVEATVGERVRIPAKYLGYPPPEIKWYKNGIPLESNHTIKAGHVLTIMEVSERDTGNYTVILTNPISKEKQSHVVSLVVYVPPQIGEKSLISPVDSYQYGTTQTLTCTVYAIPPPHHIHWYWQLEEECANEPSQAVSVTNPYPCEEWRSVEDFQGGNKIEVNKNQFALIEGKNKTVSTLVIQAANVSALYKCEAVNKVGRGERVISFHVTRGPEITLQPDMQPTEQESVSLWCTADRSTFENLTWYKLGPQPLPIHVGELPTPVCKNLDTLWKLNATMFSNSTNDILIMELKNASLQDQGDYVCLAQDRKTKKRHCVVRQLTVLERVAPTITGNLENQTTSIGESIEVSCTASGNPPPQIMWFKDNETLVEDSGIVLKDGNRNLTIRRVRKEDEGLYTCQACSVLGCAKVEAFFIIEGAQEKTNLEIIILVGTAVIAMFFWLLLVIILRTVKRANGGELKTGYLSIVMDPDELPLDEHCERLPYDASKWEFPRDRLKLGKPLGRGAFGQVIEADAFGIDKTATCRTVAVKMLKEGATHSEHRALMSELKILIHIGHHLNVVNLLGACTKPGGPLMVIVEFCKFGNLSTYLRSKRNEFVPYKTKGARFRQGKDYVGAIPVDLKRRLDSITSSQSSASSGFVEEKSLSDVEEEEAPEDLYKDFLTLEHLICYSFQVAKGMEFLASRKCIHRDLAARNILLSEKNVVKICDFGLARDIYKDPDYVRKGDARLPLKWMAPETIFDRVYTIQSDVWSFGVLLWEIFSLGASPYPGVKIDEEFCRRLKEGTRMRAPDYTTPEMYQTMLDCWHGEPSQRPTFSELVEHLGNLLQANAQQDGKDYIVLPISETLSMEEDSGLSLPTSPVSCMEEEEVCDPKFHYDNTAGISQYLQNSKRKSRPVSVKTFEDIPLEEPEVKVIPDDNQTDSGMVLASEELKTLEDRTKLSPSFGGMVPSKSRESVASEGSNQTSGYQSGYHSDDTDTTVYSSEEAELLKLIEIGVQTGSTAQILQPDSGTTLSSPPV
Another test has as its target BRAF (V600E) (Homo sapiens, UniProt P15056, V600E). The test can be described thus: In vitro BRAF (V600E) kinase inhibitory assay. The class given is biochemical.
Test [1] relates to MCF-7 cells. The test can be described thus: Cell cycle analysis by DNA flow cytometry (PI). The test is classed as cell-based, human. As for the experimental part: To ascertain the precise cell cycle phase at which our highly promising chemical 4f causes the MCF7 breast cancer cells to cease their progression, we conducted cell cycle analysis and apoptotic experiments utilizing DNA flow cytometry.
As previously documented, the cell cycle study was conducted on the MCF-7 cell lines, stained with PI and examined using a Calibur flow cytometer.
On the technique in general: A flow cytometer gives signals particle by particle.

Test [2] deals with MCF-7 cells. Nature of the test: Annexin V-FITC/PI apoptosis detection. The class given is cell-based, human. The settings on record: 24 h, untreated control 0.89%. The source says: The level of apoptosis was quantified utilizing the MCF-7 cell lines and Annexin V-FITC/PI apoptosis detection kit, as documented in the literature.
In test [3] the test system is HePG-2, HCT-116 and MCF-7 cell lines. Nature of the test: MTT antiproliferative assay, range over the three cancer cell lines. Particulars: Homo sapiens. The test is classed as cell-based. Here is the method:
Sorafenib was used as a positive control medication.
As previously documented, the in vitro anticancer efficacy of the produced hybrids was evaluated using an MTT test. The used cell lines was bought from Vacsera (Giza, Egypt).

A further test relates to FGFR-1. On the set-up: method as in PMID 32045054. The settings on record: read-out: IC50 against FGFR-1; cited from earlier work.
A further test deals with PDGFR-β. Also noted: method as in PMID 32045054. Particulars: read-out: IC50 against PDGFR-β; cited from earlier work.
For the next test, the system named is VEGFR-2 in MCF-7 cells. On the set-up: method as in PMID 32045054. Particulars: cited from earlier work.
In a further test the test system is BRAFV600. Particulars: read-out: IC50 against BRAFV600; cited from earlier work.
In another test the test system is CRAF. The settings on record: read-out: IC50 against CRAF; cited from earlier work.
The test system of another test is BRAF^V600E. Also noted: method as in PMID 23906342. Particulars: read-out: IC50 against BRAF^V600E; cited from earlier work.

As usually defined, the IC50 is the concentration needed to halve the response being measured.

Structures are written as SMILES. Where two headings read alike, the source gives them in different places.

Chain of BRAF (V600E) (P15056 whole entry V600E): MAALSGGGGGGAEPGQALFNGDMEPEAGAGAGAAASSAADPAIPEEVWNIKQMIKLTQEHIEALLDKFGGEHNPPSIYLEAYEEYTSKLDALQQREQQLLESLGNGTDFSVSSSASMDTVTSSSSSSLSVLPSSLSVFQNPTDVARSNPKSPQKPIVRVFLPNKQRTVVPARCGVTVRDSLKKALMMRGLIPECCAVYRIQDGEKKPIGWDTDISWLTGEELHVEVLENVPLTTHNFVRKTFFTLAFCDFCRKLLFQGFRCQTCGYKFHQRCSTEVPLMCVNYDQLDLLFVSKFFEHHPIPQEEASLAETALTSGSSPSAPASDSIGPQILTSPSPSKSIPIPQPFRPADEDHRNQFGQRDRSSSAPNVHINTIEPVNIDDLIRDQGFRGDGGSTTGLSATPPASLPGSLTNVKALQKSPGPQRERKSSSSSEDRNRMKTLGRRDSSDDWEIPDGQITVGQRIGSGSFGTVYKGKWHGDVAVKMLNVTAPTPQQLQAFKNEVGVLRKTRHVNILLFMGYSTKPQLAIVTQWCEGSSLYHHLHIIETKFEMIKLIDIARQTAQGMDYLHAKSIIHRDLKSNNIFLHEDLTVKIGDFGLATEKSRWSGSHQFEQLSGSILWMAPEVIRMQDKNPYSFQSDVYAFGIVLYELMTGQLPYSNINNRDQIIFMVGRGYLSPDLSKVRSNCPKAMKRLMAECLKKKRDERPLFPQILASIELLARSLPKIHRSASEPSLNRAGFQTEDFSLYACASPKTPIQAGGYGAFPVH

As for `O=C(CSc1nnc(NC(=O)Nc2ccc(C(F)(F)F)c(Cl)c2)s1)Nc1nc2ccccc2s1` [4f, N-(Benzo[d]thiazol-2-yl)-2-((5-(3-(3-chloro-4-(trifluoromethyl)phenyl)ureido)-1,3,4-thiadiazol-2-yl)thio)acetamide], the IC50 in the test with HePG-2 was 5.05 ± 0.3 µM; in the test with HCT-116 it was 6.21 ± 0.4 µM; in the test on MCF-7, 2.74 ± 0.1 µM; in the test on WI-38 cells, 41.2 ± 2.4 µM; at VEGFR-2, 0.071 µM; at BRAF (V600E), 0.194 µM. Moreover, the IC50 lay in the range of 3580 to 15400 nM in [3] (one range for the group 4a, 4f, 4l, 4r over three cancer cell lines, read-out: IC50 values ranging, against three cancer cell lines) and 2740 to 5050 nM in [3] (read-out: IC50 range of the compound over the cancer cell lines). The “Cell Cycle Distribution (%) G2-M” value in the test on MCF-7 cells [1] (untreated 15.85%) was 12.77%. Also, in the test on MCF-7 cells [1] (untreated 26.33%), the “Cell Cycle Distribution (%) S” value is reported as 22.72%. In addition, in the test on MCF-7 cells [1] (untreated 57.82%), the “Cell Cycle Distribution (%) G0-G1” value is listed as 64.51%. In addition, in the test with MCF-7 cells [2], the “proportion of apoptotic cells (early and late)” value is 37.83%.

For the compound `COc1cc(/C=N/NC(=O)COc2ccc(-c3nc4ccccc4s3)cc2OC)ccc1O` [III], the IC50 in the test with FGFR-1 was 190 nM; in the test with PDGFR-β it was 80 nM. Moreover, the “inhibitory effect on VEGFR-2 in MCF-7 cells” value with VEGFR-2 in MCF-7 cells is recorded as 83%.

Take `CNC(=O)c1cc(Oc2ccc3nc(NC(=O)Nc4ccc(Cl)c(Cl)c4)sc3c2)ccn1` [IV]: the IC50 with BRAFV600 was 95 nM; in the test with CRAF, 15 nM.

On to `N#Cc1c(Oc2ccc(F)c(NC(=O)Cc3cccc(C(F)(F)F)c3)c2)ccc2nc(NC(=O)C3CC3)sc12` [TAK-632], for which the IC50 in the test on BRAF^V600E was 2.4 nM.

The values are drawn from paper PMC11243196, “Identification of Benzothiazoles Bearing 1,3,4-Thiadiazole as Antiproliferative Hybrids Targeting VEGFR-2 and BRAF Kinase: Design, Synthesis, BIO Evaluation and In Silico Study” (Molecules, 2024).
